Data on one compound can be found in patent US20240118281A1, “ANTICANCER COMPOUNDS AND USES THEREOF” (University of Florida Research Foundation, Incorporated, priority 2021, published 2024).

In one test the test system is MDA-MB-468 cells. As to the kind of experiment: 3H-Leucine protein synthesis assay. The format is cell-based. As to conditions: 24 h, FIG. 9A. The procedure: Protein synthesis assays utilizing ^3H-Leucine purchased from Perkin Elmer (Waltham, MA) were carried out as detailed previously (Law B K, et al. J Biol Chem 2000; 275: 10796-10801; Law B K, et al. J Biol Chem 2000; 275: 38261-38267).

The target in another test is T1, AGR3 (Homo sapiens, UniProt Q8TD06).
T1 construct: His6 (N); purchased ProSpec PRO-242
T1 sequence (Q8TD06 22-166): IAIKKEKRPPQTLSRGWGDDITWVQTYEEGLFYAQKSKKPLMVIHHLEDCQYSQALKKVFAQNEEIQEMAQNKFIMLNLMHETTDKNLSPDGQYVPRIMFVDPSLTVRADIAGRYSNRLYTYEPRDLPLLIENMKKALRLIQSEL
As to the kind of experiment: DDA binding assay with AGR3. As to conditions: molar excess, pre-incubation with 600 μM, FIG. 2D. As for the experimental part: (§1) Purified His6-AGR2 or His6-AGR2 C81S, as prepared above, or His6-AGR2 (PRO-580) or His6-AGR3 (PRO-242) obtained from ProSpec (New Brunswick NJ) were incubated with or without varying concentrations of the unlabeled DDA competitors, tcyDTDO or dMtcyDTDO, and 30 μM Biotin-GlyPyrDTDO or Biotin-PyrDTDO in buffer (20 mM HEPES (pH 7.4), 1 mM EDTA, 1 mM EGTA, 5% Glycerol, 1 nM Microcystin, 1 mM Na3VO4, and 40 mM Na2H2P2O7) containing 1% Triton-X 100 for 30 min at 37° C. […] Therefore, the two probes were used interchangeably. Reactions were stopped by boiling the samples in 2×-SDS-Sample Buffer containing 100 mM NEM for 10 min. Biotin-DDA labeling of protein was verified by blotting with Streptavidin-Alkaline Phosphatase (Rockland Immunochemicals, Inc., Limerick, PA). ERp44 (PRO-547) and PDIA1 (ENZ-262) were obtained from ProSpec and used in experiments examining the binding of these proteins to Biotin-PyrDTDO.

The next test has as its target T2, ERp44 (Homo sapiens, UniProt Q9BS26).
T2 sequence (Q9BS26 30-406): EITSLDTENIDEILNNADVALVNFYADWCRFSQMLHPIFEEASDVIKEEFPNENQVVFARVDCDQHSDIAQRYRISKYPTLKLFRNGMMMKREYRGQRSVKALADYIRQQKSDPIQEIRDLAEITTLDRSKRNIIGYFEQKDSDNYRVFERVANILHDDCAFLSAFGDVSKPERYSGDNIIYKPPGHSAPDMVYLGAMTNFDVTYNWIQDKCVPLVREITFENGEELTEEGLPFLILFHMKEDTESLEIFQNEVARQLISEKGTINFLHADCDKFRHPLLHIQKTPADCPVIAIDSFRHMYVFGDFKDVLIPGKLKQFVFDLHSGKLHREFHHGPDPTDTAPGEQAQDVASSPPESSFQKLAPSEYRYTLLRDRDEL
As to the kind of experiment: In vitro binding assay with recombinant purified ERp44. Conditions: pre-incubation with a molar excess, FIG. 3D. The procedure:
as §1

A further test deals with ERAP1. The test is described as follows: ERAP1 secretion in A431 skin cancer cells, immunoblot. The class given is cell-based. As to conditions: 5 μM, 24 h. (In general: In western blotting, separated proteins are transferred to a membrane and probed.)
A further test addresses T3, AGR2 (Homo sapiens, UniProt O95994).
T3 sequence (O95994 21-175): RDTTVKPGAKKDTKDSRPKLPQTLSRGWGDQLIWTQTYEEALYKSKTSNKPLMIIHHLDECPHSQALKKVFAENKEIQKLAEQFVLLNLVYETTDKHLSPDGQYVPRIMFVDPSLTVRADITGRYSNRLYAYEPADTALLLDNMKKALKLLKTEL
As to the kind of experiment: DDA-AGR2 binding assay, Streptavidin-Alkaline Phosphatase blot. Also on record: made in house; host or cells: E. coli BL21(DE3), pET-45b(+). As for the experimental part:
Competent BL21(DE3) cells were transformed with either the AGR2/pET-45b(+) or AGR2 C81S/pET-45b(+) vectors. Protein expression was induced by the addition of 50 µM Isopropyl β-D-1-thiogalactopyranoside (Fisher Scientific, Fair Lawn, NJ) to bacterial cell cultures for 2.5 hours and shaking at 37° C. Bacterial cells were subsequently pelleted and dissolved in Mouse Tonicity Phosphate Buffered Saline (MTPBS) containing 1% Triton X-100 and sonicated for 20 seconds on ice, followed by centrifugation for 10 min at 4° C. to pellet cell debris. The supernatant was transferred to a new tube, followed by the addition of TALON Resin (Clontech, Mountain View, CA) and mixing on a Nutator for 30 min at 4° C. The TALON Resin was pelleted by centrifugation and washed twice with MTPBS and twice with MTPBS containing 30 mM Imidazole. Protein bound to the TALON Resin was eluted with 400 mM Imidazole and precipitated with 60% saturated ammonium sulfate. The precipitated protein was pelleted by centrifugation, dissolved in MTPBS containing 1 mM DTT and 1 mM EDTA, and subsequently dialyzed against a solution of MTPBS containing 10 μM DTT and 30% Glycerol.
as §1

SMILES strings stand for the structures.

On to `CO[C@H]1C[C@@H]2CS(=O)(=O)SC[C@H]2C[C@@H]1OC` [dMtcyDTDO, dimethoxy-tcyDTDO], for which the “Potency in protein synthesis assay relative to tcyDTDO” value in the test on MDA-MB-468 cells is recorded as “two-fold greater potency than tcyDTDO”. For the same compound, the “Competition with Biotin-GlyPyrDTDO binding to AGR3” value at AGR3 is “partially prevented Biotin-GlyPyrDTDO binding”. In addition, on ERp44, the “Block of Biotin-PyrDTDO biotinylation of ERp44” value is “biotinylation was blocked”. Moreover, in the test on ERAP1 (FIG. 4F upper), the “ERAP1 levels in the culture medium” value is listed as “dramatically increased”. Besides, in the test on ERAP1 (N=3, FIG. 4F lower), the “ERAP1 secretion, statistical analysis” value is reported as “induced ERAP1 secretion in a statistically significant manner”. In addition, the “Ability to block Biotin-GlyPyrDTDO binding to AGR2, compared with tcyDTDO” value on AGR2 (FIG. 2E, 9E-F) is given as “more effective competitor”. Moreover, the “Competition with Biotin-GlyPyrDTDO binding to AGR2” value on AGR2 (molar excess, pre-incubation with 600 μM, FIG. 2D) is on record as “partially prevented Biotin-GlyPyrDTDO binding”.
